US11642548B2, “Sterilization method and sterilization apparatus” (Ushio Denki Kabushiki Kaisha, priority 2017, dated 2023)

Experiments:
[1] = Test Example 3: odor of amino acid aqueous solutions before and after irradiation of ultraviolet at a peak wavelength of 222 nm (sensory evaluation); type: physicochemical; conditions: for Comparison with smells in Test example 1: odor after 222 nm UV irradiation of the solution compared with odor of UV-irradiated human hand, sensory evaluation by six assessors; for Odor before irradiation: 3 mL aqueous solution of amino acid in petri dish, before ultraviolet irradiation
Protocol: Looking at amino acids that form the proteins in the epidermis, then changes in the odor before and after irradiation of ultraviolet at a peak wavelength of 222 nm with respect to the following eighteen types of amino acids are examined More specifically, a 3 mL aqueous solution of each type of amino acid was put in a φ40 petri dish, and using the same light source as that of the ultraviolet irradiation apparatus 1, irradiated with ultraviolet with an irradiance of 3.8 mW/cm^2 for an irradiation period of 30 seconds. The petri dish and the light source were spaced apart by 8 cm. The eighteen types of amino acids were: Cystine, glutamic acid, leucine, arginine, serine, threonine, aspartic acid, proline, glycine, valine, alanine, phenylalanine, isoleucine, tyrosine, lysine, histidine, methionine, and tryptophan. These eighteen amino acids are all known as the substances that form proteins contained in the epidermis.
The comparison with the odor in Test Example 1 was made by sensory evaluation performed by the six assessors M1, M2, M3, M4, M5, and M6.

[2] = test system: region irradiated with ultraviolet (palm of the right hand); assay: Test Example 4: application of amino acid aqueous solution to palm irradiated with 222 nm ultraviolet, assessment of change in smell; type: in vivo, human; conditions: 1 mM aqueous solution sprayed and rubbed in on palm irradiated with 222 nm UV, 3.8 mW/cm^2, 30 seconds, smell of burning hair before application, Assessor M1, other five gave the same results
Source text: Similarly to the method of Test Example 1, using the ultraviolet irradiation apparatus 1 shown in FIG. 1, the palm of the right hand of each of six assessors M1, M2, M3, M4, M5, and M6 was irradiated with ultraviolet, with a peak wavelength at 222 nm and an irradiance of 3.8 mW/cm^2 for an irradiation period of 30 seconds.
After that, each aqueous solution of the eighteen types of amino acids used in Test Example 3 (cystine, glutamic acid, leucine, arginine, serine, threonine, aspartic acid, proline, glycine, valine, alanine, phenylalanine, isoleucine, tyrosine, lysine, histidine, methionine, and tryptophan) was applied to the region irradiated with ultraviolet (molar concentration: 1 mM). More specifically, each aqueous solution was sprayed and rubbed in with the palm of the hand. This was followed by an assessment of any changes in the smell before and after application of each aqueous solution.

| Compound | Comparison with smells in Test example 1 [1] | Smell after application of amino acid solution [2] | Odor before irradiation [1] | other results |
| --- | --- | --- | --- | --- |
| C[C@H](N)C(=O)O [Alanine, alanine] | Different | – | – | – |
| N=C(N)NCCC[C@H](N)C(=O)O [Arginine, arginine] | Different | Smell disappeared | – | Smell after application of amino acid solution ([2]; listed as arginine): no odor was detected |
| N[C@@H](CC(=O)O)C(=O)O [Aspartic acid, aspartic acid] | Different | Smell disappeared | No smell | Smell after application of amino acid solution ([2]; listed as aspartic acid): no odor was detected |
| N[C@@H](CSSC[C@H](N)C(=O)O)C(=O)O [Cystine] | Different | – | No smell | – |
| N[C@@H](CCC(=O)O)C(=O)O [Glutamic acid, glutamic acid] | Different | Smell disappeared | Slight smell | Smell after application of amino acid solution ([2]; listed as glutamic acid): no odor was detected |
| NCC(=O)O [Glycine, glycine] | Different | Smell disappeared | No smell | Smell after application of amino acid solution ([2]; listed as glycine): no odor was detected |
| N[C@@H](Cc1c[nH]cn1)C(=O)O [Histidine, histidine] | Different | – | No smell | – |
| CC[C@H](C)[C@H](N)C(=O)O [Isoleucine, isoleucine] | substantially the same | Smell disappeared | – | Smell after application of amino acid solution ([2]; listed as isoleucine): no odor was detected |
| CC(C)C[C@H](N)C(=O)O [Leucine, leucine] | substantially the same | Smell disappeared | – | Smell after application of amino acid solution ([2]; listed as leucine): no odor was detected |
| NCCCC[C@H](N)C(=O)O [Lysine, lysine] | Different | – | – | – |
| CSCC[C@H](N)C(=O)O [Methionine, methionine] | substantially the same | Smell disappeared | – | Smell after application of amino acid solution ([2]; listed as methionine): no odor was detected |
| N[C@@H](Cc1ccccc1)C(=O)O [Phenylalanine, phenylalanine] | Different | – | – | – |
| O=C(O)[C@@H]1CCCN1 [Proline, proline] | Different | Smell disappeared | No smell | Odor after irradiation ([1]; 3 mL aqueous solution in petri dish, UV peak 222 nm, 3.8 mW/cm^2, 30 seconds, 8 cm from light source): Smell like lysine; Smell after application of amino acid solution ([2]; listed as proline): no odor was detected |
| N[C@@H](CO)C(=O)O [Serine, serine] | Different | Smell disappeared | No smell | Smell after application of amino acid solution ([2]; listed as serine): no odor was detected |
| C[C@@H](O)[C@H](N)C(=O)O [Threonine, threonine] | Different | – | No smell | – |
| N[C@@H](Cc1ccc(O)cc1)C(=O)O [Tyrosine, tyrosine] | Different | – | No smell | – |
| CC(C)[C@H](N)C(=O)O [Valine, valine] | substantially the same | Smell disappeared | – | Smell after application of amino acid solution ([2]; listed as valine): no odor was detected |
